Experimental data taken from patent publication US11596639B2, “Substituted indole Mcl-1 inhibitors” (Vanderbilt University, priority 2016, dated 2023).

What was measured:
Mcl-1 = Mcl-1 (Homo sapiens (Human), UniProt Q07820); experiment: TR-FRET binding assay, FITC-Bak peptide and MBP-tagged Mcl-1; conditions: read-out: Ki for Inhibition of Mcl-1 by TR-FRET assay
Experimental: Compounds are diluted in DMSO in a 16-point, semilog serial dilution scheme. […] The plate was mixed and incubated for 3 hours at room temperature. […] TR-FRET signal is plotted and IC50 and Ki values are calculated in the same manner as the fluorescence polarization anisotropy based competition assays.

[1] = system: H929 human cancer cell lines; experiment: Cellular viability / proliferation (Cell TiterGlo, 72 h); format: cell-based; conditions: Homo sapiens, NCI-H929, 72 h, read-out: GI50 on cellular proliferation of H929 human cancer cell lines, H929 cells, 72 h, Cell TiterGlo, 10% FBS
Method in brief: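 1,000 cells/well, 10% FBS medium; compound added at 24 h, 2-fold dilutions from 50 μM top, DMSO <1% final. 72 h exposure, CellTiterGlo 30 min RT dark, luminescence read. IC50 by 4-parameter fit.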

Chain of Mcl-1 (Q07820 172-327): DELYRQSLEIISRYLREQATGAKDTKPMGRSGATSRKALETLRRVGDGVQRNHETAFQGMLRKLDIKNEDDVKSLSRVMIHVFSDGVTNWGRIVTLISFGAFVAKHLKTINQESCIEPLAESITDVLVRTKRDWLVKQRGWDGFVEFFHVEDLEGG

SMILES	Ki (Mcl-1) [nM]	GI50 [1] [nM]
COc1cc(N2C[C@@H](C)n3c(c(CCCOc4cc(C)c(Cl)c(C)c4)c4ccc(Cl)c(-c5c(C)ncnc5C)c43)C2=O)c2c(c1)cc(C(=O)O)n2Cc1cc(C)ccn1 [Example 565, (R)-7-(7-chloro-10-(3-(4-chloro-3,5-dimethylphenoxy)propyl)-6-(4,6-dimethylpyrimidin-5-yl)-4-methyl-1-oxo-3,4-dihydropyrazino[1,2-a]indol-2(1H)-yl)-5-methoxy-1-((4-methylpyridin-2-yl)methyl)-1H-indole-2-carboxylic acid]	< 0.2	< 200
Cc1cc(OCCCc2c3n(c4c(-c5c(C)cc(O)cc5C)c(Cl)ccc24)[C@H](C)CNC3=O)cc(C)c1Cl [Example 488, (R)-7-chloro-10-(3-(4-chloro-3,5-dimethylphenoxy)propyl)-6-(4-hydroxy-2,6-dimethylphenyl)-4-methyl-3,4-dihydropyrazino[1,2-a]indol-1(2H)-one]	39	8700
Cc1cc(OCCCc2c3n(c4c(-c5c(C)nn(C)c5C)c(Cl)ccc24)[C@H](C)CN(c2cn(CC(=O)N4CCOCC4)c4ccc(-c5ncn(C)n5)cc24)C3=O)cc(C)c1Cl [Example 525, (R)-7-Chloro-10-(3-(4-chloro-3,5-dimethylphenoxy)propyl)-4-methyl-2-(5-(1-methyl-1H-1,2,4-triazol-3-yl)-1-(2-morpholino-2-oxoethyl)-1H-indol-3-yl)-6-(1,3,5-trimethyl-1H-pyrazol-4-yl)-3,4-dihydropyrazino[1,2-a]indol-1(2H)-one]	0.41	330
Cc1cc(OCCCc2c3n(c4c(-c5c(C)nn(C)c5C)c(Cl)ccc24)[C@H](C)CN(c2cn(CCN4CCCC4)c4ccc(-c5ncn(C)n5)cc24)C3=O)cc(C)c1Cl [Example 586, (R)-7-Chloro-10-(3-(4-chloro-3,5-dimethylphenoxy)propyl)-4-methyl-2-(5-(1-methyl-1H-1,2,4-triazol-3-yl)-1-(2-(pyrrolidin-1-yl)ethyl)-1H-indol-3-yl)-6-(1,3,5-trimethyl-1H-pyrazol-4-yl)-3,4-dihydropyrazino[1,2-a]indol-1(2H)-one]	2.6	400
Cc1cc(OCCCc2c3n(c4c(-c5c(C)nn(C)c5C)c(Cl)ccc24)[C@H](C)CN(c2c(C)ccc4cc(C(=O)O)n(C)c24)C3=O)cc(C)c1Cl [Example 726, (R)-7-(7-Chloro-10-(3-(4-chloro-3,5-dimethylphenoxy)propyl)-4-methyl-1-oxo-6-(1,3,5-trimethyl-1H-pyrazol-4-yl)-3,4-dihydropyrazino[1,2-a]indol-2(1H)-yl)-1,6-dimethyl-1H-indole-2-carboxylic acid]	< 0.2	260
COc1ccc(N2C[C@@H](C)n3c(c(CCCOc4cc(C)c(Cl)c(C)c4)c4ccc(Cl)c(-c5c(C)nn(C)c5C)c43)C2=O)c2c1cc(C(=O)O)n2Cc1cc(C)ccn1 [Example 582, (R)-7-(7-chloro-10-(3-(4-chloro-3,5-dimethylphenoxy)propyl)-4-methyl-1-oxo-6-(1,3,5-trimethyl-1H-pyrazol-4-yl)-3,4-dihydropyrazino[1,2-a]indol-2(1H)-yl)-4-methoxy-1-((4-methylpyridin-2-yl)methyl)-1H-indole-2-carboxylic acid]	0.28	220
Cc1cc(OCCCc2c3n(c4c(-c5c(C)nn(C)c5C)c(Cl)ccc24)[C@H](C)CN(c2cn(CCN4CCN(C)C(=O)C4)c4ccc(-c5ncn(C)n5)cc24)C3=O)cc(C)c1Cl [Example 603, (R)-7-Chloro-10-(3-(4-chloro-3,5-dimethylphenoxy)propyl)-4-methyl-2-(5-(1-methyl-1H-1,2,4-triazol-3-yl)-1-(2-(4-methyl-3-oxopiperazin-1-yl)ethyl)-1H-indol-3-yl)-6-(1,3,5-trimethyl-1H-pyrazol-4-yl)-3,4-dihydropyrazino[1,2-a]indol-1(2H)-one]	0.89	< 200
Cc1cc(N2C[C@@H](C)n3c(c(CCCOc4cc(C)c(Cl)c(C)c4)c4ccc(Cl)c(-c5c(C)nn(C)c5C)c43)C2=O)c2c(c1)cc(C(=O)O)n2CCO [Example 657, (R)-7-(7-chloro-10-(3-(4-chloro-3,5-dimethylphenoxy)propyl)-4-methyl-1-oxo-6-(1,3,5-trimethyl-1H-pyrazol-4-yl)-3,4-dihydropyrazino[1,2-a]indol-2(1H)-yl)-1-(2-hydroxyethyl)-5-methyl-1H-indole-2-carboxylic acid]	< 0.2	610
Cc1cc(OCCCc2c3n(c4c(-c5c(C)nn(C)c5C)c(Cl)ccc24)[C@H](C)CN(c2cc(N(C)C)cc4cc(C(=O)O)n(C)c24)C3=O)cc(C)c1Cl [Example 683, (R)-7-(7-chloro-10-(3-(4-chloro-3,5-dimethylphenoxy)propyl)-4-methyl-1-oxo-6-(1,3,5-trimethyl-1H-pyrazol-4-yl)-3,4-dihydropyrazino[1,2-a]indol-2(1H)-yl)-5-(dimethylamino)-1-methyl-1H-indole-2-carboxylic acid]	0.21	250
COCCn1cc(N2C[C@@H](C)n3c(c(CCCOc4cc(C)c(Cl)c(C)c4)c4ccc(Cl)c(-c5c(C)nn(C)c5C)c43)C2=O)c2cc(-c3ncn(CC4CCOCC4)n3)ccc21 [Example 624, (R)-7-Chloro-10-(3-(4-chloro-3,5-dimethylphenoxy)propyl)-2-(1-(2-methoxyethyl)-5-(1-((tetrahydro-2H-pyran-4-yl)methyl)-1H-1,2,4-triazol-3-yl)-1H-indol-3-yl)-4-methyl-6-(1,3,5-trimethyl-1H-pyrazol-4-yl)-3,4-dihydropyrazino[1,2-a]indol-1(2H)-one]	9.6	430
Cc1cc(OCCCc2c3n(c4c(-c5c(C)nn(C)c5C)c(Cl)ccc24)[C@H](C)CN(c2cn(C)c4ccc(-n5nccn5)nc24)C3=O)cc(C)c1Cl [Example 664, (R)-7-Chloro-10-(3-(4-chloro-3,5-dimethylphenoxy)propyl)-4-methyl-2-(1-methyl-5-(2H-1,2,3-triazol-2-yl)-1H-pyrrolo[3,2-b]pyridin-3-yl)-6-(1,3,5-trimethyl-1H-pyrazol-4-yl)-3,4-dihydropyrazino[1,2-a]indol-1(2H)-one]	0.64	580
Cc1ccnc(Cn2cc(C(=O)O)c3cccc(N4C[C@@H](C)n5c(c(CCCOc6cc(C)c(Cl)c(C)c6)c6ccc(Cl)c(-c7c(C)nn(C)c7C)c65)C4=O)c32)c1 [Example 480, (R)-7-(7-Chloro-10-(3-(4-chloro-3,5-dimethylphenoxy)propyl)-4-methyl-1-oxo-6-(1,3,5-trimethyl-1H-pyrazol-4-yl)-3,4-dihydropyrazino[1,2-a]indol-2(1H)-yl)-1-((4-methylpyridin-2-yl)methyl)-1H-indole-3-carboxylic acid]	< 0.2	250
Cc1cc(OCCCc2c3n(c4c(-c5c(C)ncnc5C)c(Cl)ccc24)[C@H](C)CN(c2cn(C)c4ccc(-c5ncn(C)n5)cc24)C3=O)cc(C)c1Cl [Example 574, (R)-7-Chloro-10-(3-(4-chloro-3,5-dimethylphenoxy)propyl)-6-(4,6-dimethylpyrimidin-5-yl)-4-methyl-2-(1-methyl-5-(1-methyl-1H-1,2,4-triazol-3-yl)-1H-indol-3-yl)-3,4-dihydropyrazino[1,2-a]indol-1(2H)-one]	2.4	270
COCCOCc1cccn2nc(-c3ccc4c(c3)c(N3C[C@@H](C)n5c(c(CCCOc6cc(C)c(Cl)c(C)c6)c6ccc(Cl)c(-c7c(C)nn(C)c7C)c65)C3=O)cn4C)nc12 [Example 699, (R)-7-Chloro-10-(3-(4-chloro-3,5-dimethylphenoxy)propyl)-2-(5-(8-((2-methoxyethoxy)methyl)-[1,2,4]triazolo[1,5-a]pyridin-2-yl)-1-methyl-1H-indol-3-yl)-4-methyl-6-(1,3,5-trimethyl-1H-pyrazol-4-yl)-3,4-dihydropyrazino[1,2-a]indol-1(2H)-one]	1.2	350
COc1ccc(N2C[C@@H](C)n3c(c(CCCOc4cc(C)c(Cl)c(C)c4)c4ccc(Cl)c(-c5c(C)nc(CN(C)C)nc5C)c43)C2=O)c2c1cc(C(=O)O)n2Cc1ccccn1 [Example 482, (R)-7-(7-Chloro-10-(3-(4-chloro-3,5-dimethylphenoxy)propyl)-6-(2-((dimethylamino)methyl)-4,6-dimethylpyrimidin-5-yl)-4-methyl-1-oxo-3,4-dihydropyrazino[1,2-a]indol-2(1H)-yl)-4-methoxy-1-(pyridin-2-ylmethyl)-1H-indole-2-carboxylic acid]	< 0.2	340
Cc1cc(N2C[C@@H](C)n3c(c(CCCOc4cc(C)c(Cl)c(C)c4)c4ccc(Cl)c(-c5c(C)nn(C)c5C)c43)C2=O)c2c(c1)cc(C(=O)O)n2Cc1cccc(N2CCCCC2)n1 [Example 505, (R)-7-(7-Chloro-10-(3-(4-chloro-3,5-dimethylphenoxy)propyl)-4-methyl-1-oxo-6-(1,3,5-trimethyl-1H-pyrazol-4-yl)-3,4-dihydropyrazino[1,2-a]indol-2(1H)-yl)-5-methyl-1-((6-(piperidin-1-yl)pyridin-2-yl)methyl)-1H-indole-2-carboxylic acid]	1.3	3200
Cc1cc(OCCCc2c3n(c4c(-c5c(C)nn(C)c5C)c(Cl)ccc24)[C@H](C)CN(c2cc(OC(F)(F)F)cc4cc(C(=O)O)n(C)c24)C3=O)cc(C)c1Cl [Example 479, (R)-7-(7-chloro-10-(3-(4-chloro-3,5-dimethylphenoxy)propyl)-4-methyl-1-oxo-6-(1,3,5-trimethyl-1H-pyrazol-4-yl)-3,4-dihydropyrazino[1,2-a]indol-2(1H)-yl)-1-methyl-5-(trifluoromethoxy)-1H-indole-2-carboxylic acid]	0.95	1500
